Source: patent publication US5607836A, “Methods of detecting compounds which bind to the P2U receptor” (The Curators of the University of Missouri, priority 1995, dated 1997)

Key:
[1] = biological target: T1, P2U receptor of CF/T43 cells (Homo sapiens, UniProt P41231); assay: intracellular calcium by fura-2 fluorescence in CF/T43 cells (endogenous receptor); type: cell-based; conditions: for [Ca^2+ ]i response to extracellular nucleotide: 10^-4 M (printed for UTP)
T1 construct: fura-2 calcium
Protocol: (§1) Heteroloqous Expression. A retroviral vector-containing plasmid, pLHP2USN, was constructed by insertion of the cloned CF/T43 cDNA into the EcoRI and XhoI sites of pLXSN (A. Miller and G. Rosman, Biotechniques 7, 980 (1989)). An amphotrophic packaging cell line, PA317, was used to produce the LHP2USN retroviral vector and a control vector containing Neor only (LSN). Clonal human astrocytoma cells 1321N1, UNC strain, generously provided by T. K. Harden (UNC, Chapel Hill, N.C.), were plated at 150,000 cells per 60-mm dish and infected with LHP2USN or LSN (2 hr, 4 ug/ml Polybrene) and after 48 hr selected with 600 ug/ml G418 (Life Technologies, Inc., Gaithersburg, Md., U.S.A.). To assay for receptor activity, intracellular calcium concentration was measured in confluent cells on coverslips by fura-2 fluorescence using microspectrofluorimetry as previously described (S. Mason et al., Br. J. Pharmacol. 103, 1649 (1991)). Measurement of cell inositol phosphate formation was as described by H. Brown et al., Mol. Pharmacol. 40, 648 (1991), in accordance with known techniques.
(§2) A retrovirus expression system was employed to study the cloned CF/T43 HP2U cDNA in 1321N1 human astrocytoma cells. The effect of extracellular nuceotides on intracellular calcium, as measured by fura-2 fluorescence, was assessed in CF/T43 cells, uninfected 1321N1 cells, and 1321N1 cells infected with retroviral vector containing either the cloned HP2U or no insert (LSN).

[2] = test system: 1321N1 human astrocytoma cells (uninfected or LSN-infected); assay: intracellular calcium by fura-2 fluorescence in uninfected or LSN-infected 1321N1 control cells; type: cell-based; conditions: uninfected or LSN-infected controls
Protocol: as §1, §2

[3] = biological target: murine P2U receptor (Mus musculus, UniProt P35383); parameters: host or cells: Xenopus oocytes; conditions: Lustig et al. 1993, cited from earlier work; for EC50: Xenopus oocytes, read-out: EC50 in Xenopus oocytes expressing the P2U receptor; for activation of the cloned murine receptor: background
murine P2U receptor, sequence (P35383 whole entry): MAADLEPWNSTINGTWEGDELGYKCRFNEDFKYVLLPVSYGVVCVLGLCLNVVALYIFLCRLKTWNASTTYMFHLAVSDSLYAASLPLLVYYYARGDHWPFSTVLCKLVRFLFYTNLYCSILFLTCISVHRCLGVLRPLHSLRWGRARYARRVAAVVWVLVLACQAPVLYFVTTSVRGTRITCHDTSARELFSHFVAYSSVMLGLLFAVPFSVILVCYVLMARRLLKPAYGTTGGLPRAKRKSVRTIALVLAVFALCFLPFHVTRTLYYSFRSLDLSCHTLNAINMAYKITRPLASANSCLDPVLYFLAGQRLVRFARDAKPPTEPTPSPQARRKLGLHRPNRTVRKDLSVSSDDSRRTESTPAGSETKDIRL

[4] = biological target: human P2U receptor (Homo sapiens, UniProt P41231); assay: intracellular calcium by fura-2 fluorescence in 1321N1 human astrocytoma cells expressing the cloned HP2U (LHP2USN); type: cell-based; conditions: for [Ca^2+ ]i in absence of extracellular Ca^2+: HP2U-1321N1 cells
human P2U receptor, sequence (P41231 whole entry): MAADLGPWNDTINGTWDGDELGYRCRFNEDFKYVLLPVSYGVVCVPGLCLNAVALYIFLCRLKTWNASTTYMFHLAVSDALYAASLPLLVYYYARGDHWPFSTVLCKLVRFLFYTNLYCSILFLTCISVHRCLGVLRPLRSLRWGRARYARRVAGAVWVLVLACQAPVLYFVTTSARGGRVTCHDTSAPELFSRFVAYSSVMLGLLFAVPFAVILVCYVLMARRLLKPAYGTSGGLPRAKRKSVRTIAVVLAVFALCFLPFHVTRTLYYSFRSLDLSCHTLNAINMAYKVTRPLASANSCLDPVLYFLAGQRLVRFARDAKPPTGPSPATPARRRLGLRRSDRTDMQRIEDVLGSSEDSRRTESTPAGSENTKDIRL
Protocol: as §1, §2
To examine the pharmacological specifity of the HP2U clone expressed in 1321N1 cells, concentration-effect curves were generated for nucleotides and structural analogues active at P2X, P2Y and P2U receptors (data not shown). […] These concentration-effect relations are very similar to those reported for heterologously expressed murine P2U (Lustig, et al., supra) and virtually indistinguishable from data (not shown) generated for the endogenous CF/T43 and HT-29 receptors. Clearly, the agonist specifities fit the definition of the P2U receptor.

T1 sequence (P41231 whole entry): as above

Structure (SMILES)	[Ca^2+ ]i response to extracellular nucleotide [1]	[Ca^2+ ]i response to extracellular nucleotide in Ca2+-free medium [1]	[Ca^2+ ]i response of uninfected or LSN-infected 1321N1 cells [2]	EC50 [3] [nM]	activation of the cloned murine receptor [3]	EC50 [4] [nM]	efficacy / effect in concentration-effect curves ([4]; HP2U clone expressed in 1321N1 cells)	[Ca^2+ ]i in absence of extracellular Ca^2+ [4]	[Ca^2+ ]i response of 1321N1 cells expressing the LHP2USN vector ([4]; Ca2+-free and Ca2+-containing media)
O=c1ccn([C@@H]2O[C@H](COP(=O)(O)OP(=O)(O)OP(=O)(O)O)[C@@H](O)[C@H]2O)c(=O)[nH]1 [UTP]	initial sharp increase in [Ca^2+ ]i which relaxed over 1-2 min to a prolonged plateau	sharp increase in [Ca^2+ ]i which returned to baseline without an intervening plateau phase	no effect	~1000	activated	1400	slightly more efficacious	raised [Ca^2+ ]i	
Nc1ncnc2c1ncn2[C@@H]1O[C@H](COP(=O)(O)OP(=O)(O)OP(=O)(O)O)[C@@H](O)[C@H]1O [ATP]	the same result observed with UTP	the same result observed with UTP	the same result observed with UTP	~1000	activated	1000		raised [Ca^2+ ]i	the same result observed with UTP
